Results published in patent US11534443B2, “Quinazoline compounds, preparation method, use, and pharmaceutical composition thereof” (INSTITUTE OF MATERIA MEDICA, CHINESE ACADEMY OF MEDICAL …, priority 2016, dated 2022).

Tests used:
[1] = target: PI3Kα (Homo sapiens (Human), UniProt P42336); assay: Biochemical evaluation of activity of PI3Kα (Kinase-Glo luminescence kinase assay); conditions: 25 μM ATP, 50 μM PIP2, 1 h at room temperature
Description: The potency of compounds in the present intention against PI3Kα was assessed by in vitro kinase assay. The kinase activity of PI3Kα was determined by detecting the level of ADP produced in the kinase reaction with luciferase-based luminescence detection.
The Kinase-Glo™ Kinase Assay Kit was purchased from Promega. All assays were performed at room temperature using white OptiPlate™-384 well plate. The PI3Kα kinase was purchased from Invitrogen. The substrate was PIP2 from Invitrogen. The kinase buffer contained 50 mM Hepes (pH 7.5), 3 mM MgCl2, 100 mM NaCl, 1 mM EGTA, 0.03% CHAPS and 2 mM DTT. […] The substrate solution contained 100 μM PIP2 and 50 μM ATP. The test compound was diluted to 10 mM in 100% DMSO and serially diluted three times into ten different concentrations in 100% DMSO. The compound diluted in 100% DMSO was diluted 25-fold in 1×kinase buffer. 2.5 μL of the diluted compound solution and 2.5 μL PI3Kα kinase solution were added to each well of a 384-well plate. The reaction was initiated by addition of 5 μL substrate solution to each well. […] The plate was then covered and the reaction was allowed to proceed for one hour at room temperature, followed by the addition of 10 μL Kinase-Glo™ reagent to each well to stop the reaction.
The percentage of inhibition was calculated as follows: Inhibition %=100−(max−sample RLU)/(max−min)*100
wherein sample RLU was the luminescence reading for a given compound concentration, min was the reading of DMSO control, and max was the reading of the enzyme-free control. The IC50 value was calculated with the XLfit program in Excel.

[2] = test system: human lung cancer cell NCI-H460; assay: Tumor cell viability by MTT assay; format: cell-based; conditions: Homo sapiens, NCI-H460, 96 h
Description: After 24 hours, 100 μL of fresh medium containing different concentrations of test compounds and the corresponding solvent control was added into each well to a final concentration of DMSO less than 0.2%. Six to nine concentration groups were set for each test compound, and three parallel wells were set for each group. The plate was incubated at 5% CO2, 37° C. for 96 hours. 20 μL of freshly prepared PBS solution containing 5 mg/mL MTT was added to each well. The supernatant was discarded after incubation for another 4 hours. 150 μL DMSO was added to each well to dissolve the MTT formazan precipitate. After being mixed by a micro-oscillator, the optical density (OD) was measured at the wavelength of 570 nm, and the tumor cells treated with DMSO were used as a control group.

Sequence of PI3Kα (P42336 whole entry): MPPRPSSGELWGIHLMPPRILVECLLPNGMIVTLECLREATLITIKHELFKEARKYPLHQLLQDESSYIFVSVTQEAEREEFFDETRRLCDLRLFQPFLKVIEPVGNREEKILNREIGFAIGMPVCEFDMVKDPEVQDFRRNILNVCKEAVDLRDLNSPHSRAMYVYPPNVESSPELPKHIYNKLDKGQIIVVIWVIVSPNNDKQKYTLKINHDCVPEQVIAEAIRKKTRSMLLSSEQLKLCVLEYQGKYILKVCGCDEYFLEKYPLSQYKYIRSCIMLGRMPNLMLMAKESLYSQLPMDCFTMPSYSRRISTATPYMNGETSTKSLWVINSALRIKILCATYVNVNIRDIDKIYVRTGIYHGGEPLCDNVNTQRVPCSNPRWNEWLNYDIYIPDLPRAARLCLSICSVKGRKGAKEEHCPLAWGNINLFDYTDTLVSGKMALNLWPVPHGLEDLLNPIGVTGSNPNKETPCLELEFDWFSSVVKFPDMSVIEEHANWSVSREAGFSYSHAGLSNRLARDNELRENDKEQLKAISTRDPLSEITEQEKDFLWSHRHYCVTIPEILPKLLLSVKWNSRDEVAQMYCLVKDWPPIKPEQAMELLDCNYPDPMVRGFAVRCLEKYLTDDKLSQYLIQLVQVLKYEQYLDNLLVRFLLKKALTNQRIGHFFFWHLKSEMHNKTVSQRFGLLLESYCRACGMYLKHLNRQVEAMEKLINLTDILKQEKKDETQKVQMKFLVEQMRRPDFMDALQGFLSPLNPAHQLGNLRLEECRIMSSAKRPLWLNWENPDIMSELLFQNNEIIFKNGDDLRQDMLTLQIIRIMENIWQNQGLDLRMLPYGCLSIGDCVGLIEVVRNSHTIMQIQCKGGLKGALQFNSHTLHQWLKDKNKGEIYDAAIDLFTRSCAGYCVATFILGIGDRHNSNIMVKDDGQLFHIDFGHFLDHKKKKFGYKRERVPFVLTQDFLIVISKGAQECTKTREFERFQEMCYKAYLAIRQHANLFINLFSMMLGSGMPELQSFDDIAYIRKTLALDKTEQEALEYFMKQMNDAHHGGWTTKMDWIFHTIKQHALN
Sequence of PI3Kα (P27986 whole entry partner): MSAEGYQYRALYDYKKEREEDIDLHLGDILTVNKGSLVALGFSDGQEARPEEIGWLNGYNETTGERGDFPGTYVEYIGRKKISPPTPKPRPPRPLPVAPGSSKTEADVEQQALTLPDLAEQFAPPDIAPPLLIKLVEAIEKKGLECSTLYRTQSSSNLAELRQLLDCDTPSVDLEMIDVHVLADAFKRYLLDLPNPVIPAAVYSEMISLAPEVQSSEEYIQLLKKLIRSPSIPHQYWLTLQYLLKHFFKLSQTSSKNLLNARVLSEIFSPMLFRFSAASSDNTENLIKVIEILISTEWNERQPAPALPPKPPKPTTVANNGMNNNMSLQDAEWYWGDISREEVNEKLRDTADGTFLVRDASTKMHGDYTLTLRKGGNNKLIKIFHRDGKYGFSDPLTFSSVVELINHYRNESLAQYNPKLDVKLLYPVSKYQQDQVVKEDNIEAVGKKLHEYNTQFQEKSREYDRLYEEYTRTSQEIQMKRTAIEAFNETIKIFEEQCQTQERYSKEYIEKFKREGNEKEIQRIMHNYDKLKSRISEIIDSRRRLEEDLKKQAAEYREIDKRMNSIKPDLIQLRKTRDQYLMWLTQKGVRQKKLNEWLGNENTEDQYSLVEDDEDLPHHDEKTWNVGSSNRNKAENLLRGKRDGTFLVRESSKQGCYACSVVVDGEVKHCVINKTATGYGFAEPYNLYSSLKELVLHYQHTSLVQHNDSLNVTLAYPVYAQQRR

Compound	IC50 [1] [nM]	IC50 [2] [nM]
COc1ncc(-c2cc(OCC3CCCO3)c3ncnc(C)c3c2)cc1NS(=O)(=O)c1ccc(F)cc1F (stereo not shown) [Example 60, N-(2-methoxy-5-(4-methyl-8-((tetrahydrofuran-2-yl)methoxy)quinazolin-6-yl)pyridin-3-yl)-2,4-difluorobenzenesulfonamide]	1.3	240
COc1ncc(-c2cc(OC3CCOCC3)c3nc(N)nc(C)c3c2)cc1NS(=O)(=O)c1ccc(Cl)s1 [Example 4, N-(5-(2-amino-4-methyl-8-((tetrahydro-2H-pyran-4-yl)oxy)quinazolin-6-yl)-2-methoxypyridin-3-yl)-5-chlorothiophene-2-sulfonamide]	0.74	–
COc1ncc(-c2cc(OC3CCC3)c3nc(N)nc(C)c3c2)cc1NS(=O)(=O)c1ccc(F)cc1F [Example 24, N-(5-(2-amino-8-cyclobutoxy-4-methylquinazolin-6-yl)-2-methoxypyridin-3-yl)-2,4-difluorobenzenesulfonamide]	0.8	–
COc1ncc(-c2cc(OC3CCCC3)c3nc(N)nc(C)c3c2)cc1NS(=O)(=O)c1ccc(F)cc1F [Example 23, N-(5-(2-amino-8-(cyclopentyloxy)-4-methylquinazolin-6-yl)-2-methoxypyridin-3-yl)-2,4-difluorobenzenesulfonamide]	1.1	–
COc1ncc(-c2cc(OC3CCOC(C)(C)C3)c3nc(N)nc(C)c3c2)cc1NS(=O)(=O)c1ccc(F)cc1F (stereo not shown) [Example 19, N-(5-(2-amino-8-((2,2-dimethyltetrahydro-2H-pyran-4-yl)oxy)-4-methylquinazolin-6-yl)-2-methoxypyridin-3-yl)-2,4-difluorobenzenesulfonamide]	1	–
COc1ncc(-c2cc(OCC3CCCO3)c3nc(N)nc(C)c3c2)cc1NS(=O)(=O)c1ccc(F)cc1F (stereo not shown) [Example 20, N-(5-(2-amino-4-methyl-8-((tetrahydrofuran-2-yl)methoxy)quinazolin-6-yl)-2-methoxypyridin-3-yl)-2,4-difluorobenzenesulfonamide]	1.3	–
COc1ncc(-c2cc(OCC3CCOC3)c3nc(N)nc(C)c3c2)cc1NS(=O)(=O)c1ccc(F)cc1F (stereo not shown) [Example 21, N-(5-(2-amino-4-methyl-8-((tetrahydrofuran-3-yl)methoxy)quinazolin-6-yl)-2-methoxypyridin-3-yl)-2,4-difluorobenzenesulfonamide]	1	–
CNc1nc(C)c2cc(-c3cnc(OC)c(NS(=O)(=O)c4ccc(F)cc4F)c3)cc(OC3CCCC3)c2n1 [Example 40, N-(5-(8-(cyclopentyloxy)-4-methyl-2-(methylamino)quinazolin-6-yl)-2-methoxypyridin-3-yl)-2,4-difluorobenzenesulfonamide]	8.5	–
CNc1nc(C)c2cc(-c3cnc(OC)c(NS(=O)(=O)c4ccc(F)cc4F)c3)cc(O[C@H]3CCOC3)c2n1 [Example 35, (S)—N-(2-methoxy-5-(4-methyl-2-(methylamino)-8-((tetrahydrofuran-3-yl)oxy)quinazolin-6-yl)pyridin-3-yl)-2,4-difluorobenzenesulfonamide]	1.8	–
CNc1nc(C)c2cc(-c3cnc(OC)c(NS(=O)(=O)c4ccc(F)cc4F)c3)cc(OC3CCC3)c2n1 [Example 41, N-(5-(8-cyclobutoxy-4-methyl-2-(methylamino)quinazolin-6-yl)-2-methoxypyridin-3-yl)-2,4-difluorobenzenesulfonamide]	5	–
COc1ncc(-c2cc(OC3CCOCC3)c3nc(N)nc(C)c3c2)cc1NS(=O)(=O)c1ccc(F)cc1 [Example 3, N-(5-(2-amino-4-methyl-8-((tetrahydro-2H-pyran-4-yl)oxy)quinazolin-6-yl)-2-methoxypyridin-3-yl)-4-fluorobenzenesulfonamide]	–	96
COc1ncc(-c2cc(OCCN3CCOCC3)c3ncnc(C)c3c2)cc1NS(=O)(=O)c1ccc(F)cc1F [Example 65, N-(2-methoxy-5-(4-methyl-8-(2-morpholinoethoxy)quinazolin-6-yl)pyridin-3-yl)-2,4-difluorobenzenesulfonamide]	–	630
